What all share (assay type): physicochemical
A short description of data set [1]: Amount of aminophenol derivative dissolved in various solubilizing agents. As for the experimental part: The amount of aminophenol derivative (N-ethyloxyearbonyl-4-para-aminophenol, or EPAP, and N-cholesteryloxyearbonyl-4-para-aminophenol, or CPAP) which can be dissolved in various solubilizing agents, at 60° C., was compared in Tables 1 and 2 below.
Data set [2] in a line: Storage stability of the compositions for two months (viscosity, colour, odour, HPLC content, crystals). The following applies: two months at room temperature and at 45° C. The procedure: After storage for two months at room temperature and at 45° C., no change in the viscosity or colour of the composition and no release of odour were observed.
Data set [3] can be described thus: Amount of aminophenol derivative dissolved in various solubilizing agents. The settings on record: in caprylic/capric triglycerides, at room temperature.
The mark [4] stands for this setting: in apricot kernel oil, at 60° C.
Where [5] appears, read: in mixture of oxyethylenated (26 EO) oxypropylenated (26 PO) butyl alcohol and oxyethylenated (40 EO) hydrogenated castor oil.
[6] abbreviates: in oxyethylenated (7 EO) hydrogenated castor oil, at 60° C.
[7] abbreviates: in oxyethylenated (20 EO) oxypropylenated (5 PO) cetyl alcohol, at 60° C.
Setting [8] is: in oxyethylenated (20 EO) sorbitan monostearate, at 60° C.
[9] abbreviates: in oxyethylenated (40 EO) hydrogenated castor oil, at 60° C.
Setting [10] is: in oxyethylenated (60 EO) hydrogenated castor oil, at 60° C.
The mark [11] stands for this setting: in composition of Example 2 (fluid emulsion).
[12] abbreviates: in composition of Example 3 (bleaching fluid).
The mark [13] stands for this setting: in composition of Example 1 (fluid emulsion).

Regarding `CC(C)CCC[C@@H](C)[C@H]1CC[C@H]2[C@@H]3CC=C4C[C@@H](OC(=O)Nc5ccc(O)cc5)CC[C@]4(C)[C@H]3CC[C@]12C` [CPAP, N-cholesteryloxycarbonyl-4-para-aminophenol], the Amount dissolved in data set [1] (in Laureth-4, at 60° C.) is 4.8%; in data set [1] (in Laureth-23, at 60° C.), 4.8%; in data set [1] (setting [4]) it was “insoluble”; in data set [1] (in caprylic/capric triglycerides, at 60° C.), 0.5%; in data set [1] (in hexyldecanol, at 60° C.), “insoluble”; in data set [1] (in mineral oil, at 60° C.) it was “insoluble”. For the same compound, the Amount dissolved in data set [1] (setting [5]) is reported as 14.2%; in data set [1] (in octyldodecanol, at 60° C.) it was 0.5%; in data set [1] (setting [6]), 12.5%; in data set [1] (setting [7]) it was 14.2%; in data set [1] (setting [8]), 14.2%; in data set [1] (setting [9]) it was 16.5%. Besides, the Amount dissolved in data set [1] (setting [10]) stood at 16.5%. Also, the “Decrease in compound content, as determined by HPLC” value in data set [2] (setting [11]) and in data set [2] (setting [12]) was “no decrease” throughout. The “Formation of crystals of the compound” value in data set [2] (setting [11]) and in data set [2] (setting [12]) was “no formation of crystals” in each case.

In the case of `CCOC(=O)Nc1ccc(O)cc1` [EPAP, N-ethyloxycarbonyl-4-para-aminophenol], the Amount dissolved in data set [1] (in Laureth-4, at 60° C.) is recorded as 25%; in data set [1] (setting [4]), “insoluble”; in data set [1] (in caprylic/capric triglycerides, 80° C.), 4.7% (80° C.);; in data set [1] (in hexyldecanol, at 60° C.) it was “insoluble”; in data set [1] (in mineral oil, at 60° C.) it was “insoluble”; in data set [1] (in mixture of oxyethylenated (9 EO) tridecyl alcohol and oxyethylenated (40 EO) hydrogenated castor oil) it was 25%. The Amount dissolved in data set [1] (setting [5]) is 20%; in data set [1] (in octyldodecanol, at 60° C.) it was “insoluble”; in data set [1] (setting [6]), 16.6%; in data set [1] (setting [7]), 16.5%; in data set [1] (setting [8]), 50%; in data set [1] (setting [9]), 16.5%. In data set [1] (setting [10]), this compound had an Amount dissolved of 16.5%. For the same compound, the “Decrease in compound content, as determined by HPLC” value in data set [2] (setting [13]) is recorded as “no decrease”. Also, the “Formation of crystals of the compound” value in data set [2] (setting [13]) is “no formation of crystals”. In addition, in data set [3], the Recrystallization after dissolution entry is “recrystallizes”.

(Values after patent US7056498B2, “Composition containing aminophenol derivative, use thereof, and process for dissolving aminophenol derivative” (L'Oreal, priority 1999, dated 2006).)
